Data on 19 compounds can be found in ChEMBL document CHEMBL1781969, “4β-[(4-Alkyl)-1,2,3-triazol-1-yl] podophyllotoxins as anticancer compounds: design, synthesis and biological evaluation” (Eur J Med Chem, 2011).

One experiment deals with A549. Kind of experiment: cells. To be noted: Homo sapiens, A549, 48 h.
The subject of a further experiment is HCT-15. Kind of experiment: cells. To be noted: Homo sapiens, HCT-15, 48 h.
Experiment [1] relates to MCF7. Kind of experiment: cells. To be noted: Homo sapiens, MCF7, 48 h.
Description: Cytotoxicity against human MCF7 cells after 48 hrs by sulforhodamine B assay
A further experiment deals with HEp-2. Kind of experiment: Cytotoxicity against human Hep2 cells after 48 hrs by sulforhodamine B assay. The conditions noted are these: HEp-2, 48 h. The format is functional, cell-based.
The next experiment concerns PC-3. Kind of experiment: cells. To be noted: Homo sapiens, PC-3, 48 h.
Another experiment deals with SF-295. Kind of experiment: Cytotoxicity against human SF295 cells after 48 hrs by sulforhodamine B assay. To be noted: SF-295, 48 h. The experiment is classed as functional, cell-based. On the technique in general: The SRB assay estimates cell density from bound dye.
The subject of experiment [2] is MCF7. Kind of experiment: Cell cycle arrest in human MCF7 cells assessed as accumulation at sub-G1 phase at 1 uM after 24 hrs using propidium iodide staining by flow cytometry (reference value: 7.69%). The format is functional. (In general: Flow cytometry measures light scatter and fluorescence of single cells or particles in a stream.)
In experiment [3] the test system is MCF7. Kind of experiment: Cell cycle arrest in human MCF7 cells assessed as accumulation at sub-G1 phase at 5 uM after 24 hrs using propidium iodide staining by flow cytometry (reference value: 7.69%). The experiment is classed as functional.
The test system of experiment [4] is MCF7. Kind of experiment: Cell cycle arrest in human MCF7 cells assessed as accumulation at G2/M-phase at 1 uM after 24 hrs using propidium iodide staining by flow cytometry (reference value: 19.91%). The format is functional.
Experiment [5] concerns MCF7. Kind of experiment: Cell cycle arrest in human MCF7 cells assessed as accumulation at G1/G0-phase at 5 uM after 24 hrs using propidium iodide staining by flow cytometry (reference value: 47.42%). The format is functional.
Experiment [6] relates to MCF7. Kind of experiment: Cell cycle arrest in human MCF7 cells assessed as accumulation at G1/G0-phase at 1 uM after 24 hrs using propidium iodide staining by flow cytometry (reference value: 47.42%). The experiment is classed as functional.
Experiment [7] relates to MCF7. Kind of experiment: Induction of apoptosis in human MCF7 cells assessed as DNA ladder formation at 1 uM after 24 hrs using ethidium bromide staining by agarose gel electrophoresis. The experiment is classed as functional, cell-based.
Experiment [8] has as its system MCF7. Kind of experiment: Cell cycle arrest in human MCF7 cells assessed as accumulation in S-phase at 5 uM after 24 hrs using propidium iodide staining by flow cytometry (reference value: 25.29%). The format is functional.
Experiment [9] has as its system MCF7. Kind of experiment: Cell cycle arrest in human MCF7 cells assessed as accumulation at G2/M-phase at 5 uM after 24 hrs using propidium iodide staining by flow cytometry (reference value: 19.91%). The format is functional.
The test system of experiment [10] is MCF7. Kind of experiment: Cell cycle arrest in human MCF7 cells assessed as accumulation in S-phase at 1 uM after 24 hrs using propidium iodide staining by flow cytometry (reference value: 25.29%). The format is functional.

Activity calls are given as the source filed them. The rule behind the calls is not given here.

Description for A549: Cytotoxicity against human A549 cells after 48 hrs by sulforhodamine B assay
Description for HCT-15: Cytotoxicity against human HCT15 cells after 48 hrs by sulforhodamine B assay
Description for PC-3: Cytotoxicity against human PC3 cells after 48 hrs by sulforhodamine B assay

For the compound `CCCCCc1cn([C@@H]2c3cc4c(cc3[C@@H](c3cc(OC)c(O)c(OC)c3)[C@H]3C(=O)OC[C@@H]32)OCO4)nn1`, the IC50 – broadly, the concentration that gives 50% inhibition – amounted to 26 µM in the experiment on A549; 2.1 µM in the experiment on HCT-15; 14 µM with MCF7 [1]; 21 µM in the experiment on HEp-2; 4.7 µM with PC-3; 4.3 µM with SF-295.
For `CCCCCc1cn([C@@H]2c3cc4c(cc3[C@@H](c3cc(OC)c(OC)c(OC)c3)[C@H]3C(=O)OC[C@@H]32)OCO4)nn1`, the IC50 in the experiment with A549 stood at 39 µM; with HCT-15 it was 11 µM; in the experiment on MCF7 [1], 9.5 µM; in the experiment on HEp-2 it was 7.7 µM; in the experiment on PC-3, 8.4 µM; with SF-295, 24 µM.
Consider `CCc1cn([C@@H]2c3cc4c(cc3[C@@H](c3cc(OC)c(OC)c(OC)c3)[C@H]3C(=O)OC[C@@H]32)OCO4)nn1`, for which the IC50 in the experiment with A549 is 35 µM; with HCT-15 it was 0.4 µM; in the experiment with MCF7 [1], 0.4 µM; in the experiment with HEp-2, 0.06 µM; with PC-3 it was 0.03 µM; in the experiment on SF-295 it was 1.8 µM. For the same compound, the Activity in the experiment with MCF7 [2] is listed as 69.34%; with MCF7 [3] it was 80.1%; in the experiment with MCF7 [4], 1.96%; in the experiment with MCF7 [5], 16.28%; in the experiment on MCF7 [6], 22.27%; in the experiment with MCF7 [8], 2.84%. The Activity was determined as 1.74% with MCF7 [9] and 5.99% in the experiment on MCF7 [10]. Moreover, the outcome with MCF7 [7] was Active.
Turning to `COc1cc([C@@H]2c3cc4c(cc3[C@@H](O[C@@H]3O[C@@H]5CO[C@@H](C)O[C@H]5[C@H](O)[C@H]3O)[C@H]3COC(=O)[C@H]23)OCO4)cc(OC)c1O` [ETOPOSIDE], the IC50 amounted to 7.15 µM in the experiment with HCT-15, 19 µM in the experiment on MCF7 [1] and 13.5 µM in the experiment with SF-295.
Consider `CCc1cn([C@@H]2c3cc4c(cc3[C@@H](c3cc(OC)c(O)c(OC)c3)[C@H]3C(=O)OC[C@@H]32)OCO4)nn1`, for which the IC50 in the experiment on A549 came out at 17 µM; in the experiment on HCT-15, 1.9 µM; in the experiment with MCF7 [1], 0.04 µM; in the experiment on HEp-2 it was 0.05 µM; in the experiment on PC-3 it was 0.06 µM; in the experiment with SF-295, 4.8 µM.
`CCCCCCCc1cn([C@@H]2c3cc4c(cc3[C@@H](c3cc(OC)c(OC)c(OC)c3)[C@H]3C(=O)OC[C@@H]32)OCO4)nn1`: the IC50 in the experiment on A549 is 36 µM; in the experiment on HCT-15, 45 µM; in the experiment with MCF7 [1] it was 6.4 µM; with HEp-2 it was 9.8 µM; with PC-3, 23 µM; with SF-295 it was 25 µM.
Regarding `CCCCCCCCc1cn([C@@H]2c3cc4c(cc3[C@@H](c3cc(OC)c(O)c(OC)c3)[C@H]3C(=O)OC[C@@H]32)OCO4)nn1`, the half-inhibitory concentration (IC50) in the experiment with A549 was greater than 100 µM; in the experiment on HCT-15 it was 13 µM; in the experiment on MCF7 [1], 11 µM; with HEp-2, 3.8 µM; with PC-3, 5.1 µM; in the experiment on SF-295, 5.7 µM.
With `CCCCCCc1cn([C@@H]2c3cc4c(cc3[C@@H](c3cc(OC)c(OC)c(OC)c3)[C@H]3C(=O)OC[C@@H]32)OCO4)nn1`, the IC50 in the experiment with A549 amounted to 35 µM; in the experiment on HCT-15, 27 µM; with MCF7 [1] it was 8.6 µM; in the experiment with HEp-2 it was 10 µM; with PC-3, 6.4 µM; in the experiment on SF-295, 10 µM.
As to `CCCCCCCCc1cn([C@@H]2c3cc4c(cc3[C@@H](c3cc(OC)c(OC)c(OC)c3)[C@H]3C(=O)OC[C@@H]32)OCO4)nn1`, the IC50 in the experiment with A549 was greater than 100 µM; in the experiment with HCT-15, greater than 100 µM; in the experiment on MCF7 [1], 9.3 µM; with HEp-2, 18 µM; in the experiment on PC-3, 17 µM; in the experiment with SF-295, 14 µM.
As for `COc1cc([C@@H]2c3cc4c(cc3[C@@H](n3cc(CO)nn3)[C@H]3COC(=O)[C@H]23)OCO4)cc(OC)c1O`, the IC50 in the experiment with A549 was 18 µM; with HCT-15 it was 18 µM; in the experiment on MCF7 [1], 0.6 µM; in the experiment on HEp-2 it was 6.7 µM; in the experiment on PC-3 it was 8.2 µM; with SF-295, 15 µM.
Regarding `CCCCCCCCCCc1cn([C@@H]2c3cc4c(cc3[C@@H](c3cc(OC)c(O)c(OC)c3)[C@H]3C(=O)OC[C@@H]32)OCO4)nn1`, the IC50 stood at 30 µM in the experiment with A549; 15 µM with HCT-15; 11 µM with MCF7 [1]; 19 µM with HEp-2; 19 µM with PC-3; 13 µM in the experiment with SF-295.
`COc1cc([C@@H]2c3cc4c(cc3[C@@H](n3cc(CO)nn3)[C@H]3COC(=O)[C@H]23)OCO4)cc(OC)c1OC`: the half-maximal inhibitory concentration (IC50) was greater than 100 µM with A549; 15 µM in the experiment on HCT-15; 0.01 µM in the experiment on MCF7 [1]; 0.06 µM in the experiment with HEp-2; 0.06 µM in the experiment on PC-3; 2.1 µM in the experiment with SF-295.
As to `CCCCc1cn([C@@H]2c3cc4c(cc3[C@@H](c3cc(OC)c(OC)c(OC)c3)[C@H]3C(=O)OC[C@@H]32)OCO4)nn1`, the IC50 in the experiment on A549 was found to be 82 µM; in the experiment on HCT-15, 11 µM; with MCF7 [1] it was 9.8 µM; with HEp-2, 9.6 µM; in the experiment with PC-3 it was 6.6 µM; with SF-295, 8.1 µM.
In the case of `CCCc1cn([C@@H]2c3cc4c(cc3[C@@H](c3cc(OC)c(O)c(OC)c3)[C@H]3C(=O)OC[C@@H]32)OCO4)nn1`, the IC50 in the experiment with A549 was 27 µM; in the experiment on HCT-15, 0.8 µM; in the experiment on MCF7 [1] it was 5.7 µM; in the experiment with HEp-2, 2.9 µM; in the experiment with PC-3, 0.2 µM; in the experiment with SF-295, 2.3 µM.
Regarding `CCCc1cn([C@@H]2c3cc4c(cc3[C@@H](c3cc(OC)c(OC)c(OC)c3)[C@H]3C(=O)OC[C@@H]32)OCO4)nn1`, the IC50 amounted to 39 µM in the experiment with A549; 0.03 µM with HCT-15; 1.4 µM in the experiment on MCF7 [1]; 1.6 µM in the experiment with HEp-2; 5.1 µM in the experiment on PC-3; 3.6 µM in the experiment with SF-295. The Activity in the experiment on MCF7 [2] is given as 55.65%; with MCF7 [3], 78.16%; in the experiment with MCF7 [4] it was 3.39%; in the experiment on MCF7 [5], 10.56%; in the experiment with MCF7 [6] it was 27.81%; in the experiment with MCF7 [8], 11.44%. Besides, the results for the Activity in the experiment with MCF7 [9] and with MCF7 [10] were 1.07% and 16.17%, respectively. The result with MCF7 [7] was Active.
With `CCCCc1cn([C@@H]2c3cc4c(cc3[C@@H](c3cc(OC)c(O)c(OC)c3)[C@H]3C(=O)OC[C@@H]32)OCO4)nn1`, the 50% inhibitory concentration (IC50) is 35 µM in the experiment on A549; 34 µM with HCT-15; 20 µM in the experiment with MCF7 [1]; 17 µM with HEp-2; 12 µM with PC-3; 21 µM in the experiment on SF-295.
With `CCCCCCCc1cn([C@@H]2c3cc4c(cc3[C@@H](c3cc(OC)c(O)c(OC)c3)[C@H]3C(=O)OC[C@@H]32)OCO4)nn1`, the IC50 in the experiment on A549 was determined as 45 µM; in the experiment with HCT-15 it was 15 µM; in the experiment with MCF7 [1], 13 µM; in the experiment on HEp-2, 6 µM; in the experiment with PC-3, 5.8 µM; in the experiment with SF-295 it was 10 µM.
For `CCCCCCc1cn([C@@H]2c3cc4c(cc3[C@@H](c3cc(OC)c(O)c(OC)c3)[C@H]3C(=O)OC[C@@H]32)OCO4)nn1`, the IC50 was 26 µM in the experiment on A549; 11 µM in the experiment on HCT-15; 19 µM in the experiment with MCF7 [1]; greater than 100 µM with HEp-2; 8.7 µM in the experiment on PC-3; 18 µM with SF-295.
In the case of `CCCCCCCCCCc1cn([C@@H]2c3cc4c(cc3[C@@H](c3cc(OC)c(OC)c(OC)c3)[C@H]3C(=O)OC[C@@H]32)OCO4)nn1`, the IC50 in the experiment with A549 is greater than 100 µM; in the experiment on HCT-15 it was 29 µM; in the experiment with MCF7 [1] it was 5.7 µM; in the experiment on HEp-2, 5.8 µM; in the experiment on PC-3 it was 5.5 µM; in the experiment with SF-295, 6.2 µM.
